# How the values were obtained:
# MDA-MB-231 cells [1] = test: ECIST expression microarray, deoxyC-treated vs untreated cells; format: cell-based, human
# BIK gene = details: cited from earlier work
# CP70 cells [2] = test: Semi-quantitative RT-PCR; format: cell-based, human; details: for HSPA.2 expression (RT-PCR): FIG. 21 row 1, no expression in untreated cells; for expression of eight Group 2 loci (RT-PCR): FIGS. 22A, 22B, unmethylated loci
# CP70 cells [3] = test: Expression microarray analysis (ECIST panel, triple analysis); format: cell-based, human; details: for number of Group 1 (hypermethylated) loci with increased expression: FIG. 20D; for percent of ECIST loci up-regulated 4-fold or greater / total number of ECISTs up-regulated 4-fold or greater: of 1507 loci, DAC 0.5 μM 4 days, TSA 0.5 μM 12 h
# MDA-MB-231 cells [4] = test: RT-PCR verification of ECIST loci responsive to demethylation; format: cell-based, human
# [5] = 0.75 μM, 4 days, among 1,162 ECISTs
# [6] = average normalized ratio, 0.75 μM treated vs untreated
compound,measurement,setting,value
"Nc1ncn([C@H]2C[C@H](O)[C@@H](CO)O2)c(=O)n1 [DAC, 5-aza-2′-deoxycytidine]",number of hypermethylated ECIST loci whose transcripts can be reactivated,MDA-MB-231 cells [1]; 0.75 μM,30
same,number of hypermethylated ECIST loci whose transcripts could not be reactivated (or up-regulated),MDA-MB-231 cells [1]; 0.75 μM,189
same,number of loci up-regulated in response to demethylation but not associated with CpG island hypermethylation,MDA-MB-231 cells [1]; 0.75 μM,96
same,down-regulated ECIST loci (SAM analysis),MDA-MB-231 cells [1]; [5],No down-regulated loci were identified
same,"number of statistically significant up-regulated ECIST loci (SAM, false-positive rate 1%)",MDA-MB-231 cells [1]; [5],126
same,"Cy5/Cy3 Expression, CpG5B6 (CYP27B1)",MDA-MB-231 cells [1]; [6],2.7
same,"Cy5/Cy3 Expression, CpG6B6 (dJ631M13.5)",MDA-MB-231 cells [1]; [6],2.6
same,"Cy5/Cy3 Expression, CpG15E2",MDA-MB-231 cells [1]; [6],3.3
same,"Cy5/Cy3 Expression, CpG21G11",MDA-MB-231 cells [1]; [6],2.9
same,"Cy5/Cy3 Expression, CpG32H12",MDA-MB-231 cells [1]; [6],2.6
same,"Cy5/Cy3 Expression, CpG65A1 (TNS)",MDA-MB-231 cells [1]; [6],4.3
same,"Cy5/Cy3 Expression, CpG65C10 (TBX4)",MDA-MB-231 cells [1]; [6],4.7
same,"Cy5/Cy3 Expression, DL2F9 (ERCC-1)",MDA-MB-231 cells [1]; [6],3.8
same,"Cy5/Cy3 Expression, MP1F6 (LOC84661)",MDA-MB-231 cells [1]; [6],2.1
same,"Cy5/Cy3 Expression, MP2F1 (H4FJ)",MDA-MB-231 cells [1]; [6],3.2
same,"Cy5/Cy3 Expression, MP2F10",MDA-MB-231 cells [1]; [6],3.2
same,"Cy5/Cy3 Expression, PY1H8 (PSMB4)",MDA-MB-231 cells [1]; [6],2.1
same,"Cy5/Cy3 Expression, PY2F1 (FLJ10466)",MDA-MB-231 cells [1]; [6],3.2
same,"Cy5/Cy3 Expression, PY3D3 (EST AI023535)",MDA-MB-231 cells [1]; [6],2.4
same,"Cy5/Cy3 Expression, PY3D6 (EST BI518683)",MDA-MB-231 cells [1]; [6],2.0
same,"Cy5/Cy3 Expression, PY3F2 (HSRN04)",MDA-MB-231 cells [1]; [6],2.0
same,"Cy5/Cy3 Expression, SC2C3 (EST BE502068)",MDA-MB-231 cells [1]; [6],4.9
same,"Cy5/Cy3 Expression, SC8F2 (RPS16)",MDA-MB-231 cells [1]; [6],2.0
same,"Cy5/Cy3 Expression, SC12A2 (SAAS)",MDA-MB-231 cells [1]; [6],2.2
same,"Cy5/Cy3 Expression, SC13D6 (EST183864)",MDA-MB-231 cells [1]; [6],2.1
same,"Cy5/Cy3 Expression, SC15E7",MDA-MB-231 cells [1]; [6],4.0
same,"Cy5/Cy3 Expression, SC15H6 (H2BFR)",MDA-MB-231 cells [1]; [6],2.6
same,"Cy5/Cy3 Expression, SC19F1 (EST BE838797)",MDA-MB-231 cells [1]; [6],2.7
same,"Cy5/Cy3 Expression, SC20G3 (HOXD3)",MDA-MB-231 cells [1]; [6],2.3
same,"Cy5/Cy3 Expression, SC21A8 (U3B2)",MDA-MB-231 cells [1]; [6],3.2
same,"Cy5/Cy3 Expression, SC21G11 (HSPA2)",MDA-MB-231 cells [1]; [6],5.4
same,"Cy5/Cy3 Expression, SC40C8 (H2BFG)",MDA-MB-231 cells [1]; [6],2.7
same,"Cy5/Cy3 Expression, SC77F6 (TTF-1)",MDA-MB-231 cells [1]; [6],3.8
same,"Cy5/Cy3 Expression, SC87E7 (EST AA365852)",MDA-MB-231 cells [1]; [6],2.4
same,"Cy5/Cy3 Expression, SC89F2 (HAGE)",MDA-MB-231 cells [1]; [6],14.6
same,time by which BIK expression returned to control levels,"BIK gene; human lung cancer cell line, after treatment",≤ 72 h
same,induction of the apoptosis promoting factor BIK,BIK gene; human lung cancer cell line,early induction
same,HSPA.2 expression (RT-PCR),CP70 cells [2],increased
same,expression of eight Group 2 loci (RT-PCR),CP70 cells [2],Increased expression of some of these loci
same,expression of Group 2a genes (unmethylated promoters),CP70 cells [3],not by DAC alone
same,number of Group 1 (hypermethylated) loci with increased expression,CP70 cells [3],11
same,percent of ECIST loci up-regulated 4-fold or greater,CP70 cells [3],1.9%
same,total number of ECISTs up-regulated 4-fold or greater,CP70 cells [3],29
same,"expression of CYP27B1, HSPA2, TTF-1, FLJ10466 and EST183864 by RT-PCR","MDA-MB-231 cells [4]; 0.75 μM treated vs untreated, FIG. 17A",reactivated
same,"expression levels of CpG12F10, MP2A3 and MP3D7 by RT-PCR","MDA-MB-231 cells [4]; treated relative to untreated cells, loci not hypermethylated, FIG. 17B",increased
"CC(/C=C/C(=O)NO)=C\[C@@H](C)C(=O)c1ccc(N(C)C)cc1 [TSA, trichostatin A]",induction of the BIK gene,"BIK gene; Suzuki et al., cell line not stated",induced in a methylation-independent manner
same,HSPA.2 expression (RT-PCR),CP70 cells [2],remained unchanged
same,expression of eight Group 2 loci (RT-PCR),CP70 cells [2],Increased expression of some of these loci
same,expression of Group 2a genes (unmethylated promoters),CP70 cells [3],increased expression
same,number of Group 1 (hypermethylated) loci with increased expression,CP70 cells [3],No significant change in expression
same,percent of ECIST loci up-regulated 4-fold or greater,CP70 cells [3],1.1%
same,total number of ECISTs up-regulated 4-fold or greater,CP70 cells [3],17

# Source: patent publication US7563567B1, “Use of ECIST microarrays in an integrated method for assessing DNA methylation, gene expression and histone acetylation” (The Curators of the Univeristy of Missouri of Columbia, priority 2002, dated 2009)
